Test results reported in patent US8642592B2, “Oxo-heterocyclically substituted alkyl carboxylic acids and use thereof” (Bayer Intellectual Property GmbH, priority 2009, dated 2014).

How the values were obtained:
[1] = system: saphenous artery; experiment: Vasorelaxant effect in vitro (phenylephrine-contracted artery rings); set-up: species or system Rabbits; conditions: Oryctolagus cuniculus; concentration reducing phenylephrine-induced contraction of rabbit saphenous artery rings by 50%
Experimental: Rabbits are anesthetized and sacrificed by intravenous injection of thiopental sodium (about 50 mg/kg) and exsanguinated. The saphenous artery is removed and divided into rings 3 mm wide. The rings are mounted singly on in each case a pair of triangular hooks open at the end and made of 0.3 mm-thick special wire (Remanium®). Each ring is placed under an initial tension in 5 ml organ baths with Krebs-Henseleit solution which is at 37° C., is gassed with carbogen and has the following composition: NaCl 119 mM; KCl 4.8 mM; CaCl2×2 H2O 1 mM; MgSO4×7 H2O 1.4 mM; KH2PO4 1.2 mM; NaHCO3 25 mM; glucose 10 mM; bovine serum albumin 0.001%. The force of contraction is detected with Statham UC2 cells, amplified and digitized via A/D converters (DAS-1802 HC, Keithley Instruments, Munich) and recorded in parallel on chart recorders. Contractions are induced by addition of phenylephrine.
After several (generally 4) control cycles, the substance to be investigated is added in each further run in increasing dosage, and the level of the contraction achieved under the influence of the test substance is compared with the level of the contraction reached in the last preceding run. The concentration necessary to reduce the contraction reached in the preceding control by 50% is calculated from this (IC50). The standard application volume is 5 μl. The proportion of DMSO in the bath solution corresponds to 0.1%.

[2] = molecular target: T1, Heme-free sGC (Rattus norvegicus, UniProt P20595); experiment: Stimulation of recombinant soluble guanylate cyclase in vitro, heme-free enzyme; format: biochemical
T1 construct: made in house; host or cells: baculovirus/Sf9 insect cells
T1 sequence (P20595 1-619): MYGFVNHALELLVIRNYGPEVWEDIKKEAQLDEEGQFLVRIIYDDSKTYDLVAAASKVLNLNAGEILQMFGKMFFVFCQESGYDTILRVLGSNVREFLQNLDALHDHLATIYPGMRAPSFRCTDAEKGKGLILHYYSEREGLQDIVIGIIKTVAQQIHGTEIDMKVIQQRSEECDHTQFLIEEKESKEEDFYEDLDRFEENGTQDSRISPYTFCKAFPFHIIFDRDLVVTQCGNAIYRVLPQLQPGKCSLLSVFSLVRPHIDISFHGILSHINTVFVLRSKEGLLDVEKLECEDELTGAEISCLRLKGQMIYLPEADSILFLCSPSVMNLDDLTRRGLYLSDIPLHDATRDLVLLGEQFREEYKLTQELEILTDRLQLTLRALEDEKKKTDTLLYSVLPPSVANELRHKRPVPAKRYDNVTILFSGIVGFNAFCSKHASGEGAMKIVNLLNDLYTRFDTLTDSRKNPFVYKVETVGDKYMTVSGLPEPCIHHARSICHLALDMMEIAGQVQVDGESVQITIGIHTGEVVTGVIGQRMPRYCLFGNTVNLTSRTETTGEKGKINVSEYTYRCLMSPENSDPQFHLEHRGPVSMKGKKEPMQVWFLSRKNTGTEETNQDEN
T1 sequence (P19686 1-690 partner): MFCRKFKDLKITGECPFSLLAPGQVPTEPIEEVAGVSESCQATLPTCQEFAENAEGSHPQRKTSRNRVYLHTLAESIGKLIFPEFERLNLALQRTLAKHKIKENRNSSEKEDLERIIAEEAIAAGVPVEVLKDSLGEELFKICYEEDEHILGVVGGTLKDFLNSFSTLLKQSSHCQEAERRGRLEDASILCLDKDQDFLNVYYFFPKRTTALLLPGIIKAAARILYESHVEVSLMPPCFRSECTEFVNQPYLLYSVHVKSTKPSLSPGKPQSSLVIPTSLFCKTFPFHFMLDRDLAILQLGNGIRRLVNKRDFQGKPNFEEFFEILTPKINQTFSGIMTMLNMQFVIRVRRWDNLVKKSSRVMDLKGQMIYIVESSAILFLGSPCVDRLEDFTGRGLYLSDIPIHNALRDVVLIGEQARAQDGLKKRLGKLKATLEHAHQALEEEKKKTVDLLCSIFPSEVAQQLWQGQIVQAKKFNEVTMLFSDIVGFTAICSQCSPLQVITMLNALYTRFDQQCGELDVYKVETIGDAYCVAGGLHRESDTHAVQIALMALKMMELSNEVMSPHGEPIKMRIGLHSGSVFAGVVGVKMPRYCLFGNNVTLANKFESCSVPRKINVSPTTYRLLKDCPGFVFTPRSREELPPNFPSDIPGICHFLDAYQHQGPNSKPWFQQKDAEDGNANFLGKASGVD
Experimental: Investigations on the stimulation of recombinant soluble guanylate cyclase (sGC) by the compounds according to the invention with and without sodium nitroprusside, and with and without the heme-dependent sGC inhibitor 1H-1,2,4-oxadiazolo-(4,3a)-quinoxalin-1-one (ODQ) are carried out by the method described in detail in the following reference: M. Hoenicka, E. M. Becker, H. Apeler, T. Sirichoke, H. Schroeder, R. Gerzer and J.-P. Stasch, “Purified soluble guanylyl cyclase expressed in a baculovirus/Sf9 system: Stimulation by YC-1, nitric oxide, and carbon oxide”, J. Mol. Med. 77 (1999), 14-23. The heme-free guanylate cyclase is obtained by adding Tween 20 to the sample buffer (0.5% in the final concentration).
The activation of sGC by a test substance is reported as n-fold stimulation of the basal activity.

O=C(NCCCCC1(C(=O)O)CC1)C(c1ccc(CN2N=C(c3ccccc3)OCC2=O)cc1)C1CCCC1 (single isomer, unassigned; (+)) [Example 1, (+)-1-(4-{[2-cyclopentyl-2-{4-[(5-oxo-2-phenyl-5,6-dihydro-4H-1,3,4-oxadiazin-4-yl)methyl]phenyl}-acetyl]amino}butyl)cyclopropanecarboxylic acid]
IC50 [1]: 284 nM
Stimulation (n-fold) of heme-free sGC, Basal ([2]; 0.1 μM Example 1): 1.4 n-fold
Stimulation (n-fold) of heme-free sGC, Basal ([2]; 1 μM Example 1): 1.7 n-fold
Stimulation (n-fold) of heme-free sGC, Basal ([2]; 10 μM Example 1): 8.4 n-fold
Stimulation (n-fold) of heme-free sGC, Basal ([2]; 100 μM Example 1): 111.8 n-fold
